Laboratory results published in patent US20150141381A1, “TETRACYCLINE COMPOUNDS HAVING TARGET THERAPEUTIC ACTIVITIES” (Paratek Pharmaceuticals, Inc., priority 2001, published 2015).
Where two headings read alike, the source gives them in different places.

Columns and labels:
S. aureus RN450 = assay: In Vitro Anti-Bacterial Activity Assay (MIC), gram positive; format: cell-based; conditions: Staphylococcus aureus, RN450, 18 h, gram positive bacteria; read-out: Antibiotic Activity Gram + (MIC)
E. coli mL308 225 = assay: In Vitro Anti-Bacterial Activity Assay (MIC), gram negative; format: cell-based; conditions: Escherichia coli, ML308225, 18 h, read-out: Antibiotic Activity Gram − (MIC)

| Structure (SMILES) | MIC (S. aureus RN450) | MIC (E. coli mL308 225; gram negative bacteria) | MIC (E. coli mL308 225) |
| --- | --- | --- | --- |
| CN(C)c1cc(CNCC(=O)O)c(O)c2c1C[C@H]1C[C@H]3[C@H](N(C)C)C(O)=C(C(N)=O)C(=O)[C@@]3(O)C(O)=C1C2=O | > 4 µg/mL | > 4 µg/mL |  |
| COC(=O)c1ccc(CNCc2cc(N(C)C)c3c(c2O)C(=O)C2=C(O)[C@]4(O)C(=O)C(C(N)=O)=C(O)[C@@H](N(C)C)[C@@H]4C[C@@H]2C3)cc1 | < 4 µg/mL | > 4 µg/mL |  |
| CN(C)[C@@H]1C(O)=C(C(N)=O)C(=O)[C@@]2(O)C(O)=C3C(=O)c4c(O)c(CN5CCCCC5)cc(-c5ccccn5)c4C[C@H]3C[C@@H]12 | < 4 µg/mL | > 4 µg/mL |  |
| CN(C)[C@@H]1C(O)=C(C(N)=O)C(=O)[C@@]2(O)C(O)=C3C(=O)c4c(O)c(CNC5CCCC5)cc(-c5ccoc5)c4C[C@H]3C[C@@H]12 | < 4 µg/mL | > 4 µg/mL |  |
| CC(=O)c1cc(CNCC(C)(C)C)c(O)c2c1C[C@H]1C[C@H]3[C@H](N(C)C)C(O)=C(C(N)=O)C(=O)[C@@]3(O)C(O)=C1C2=O | < 4 µg/mL | > 4 µg/mL |  |
| CONCc1cc(CNCC(C)(C)C)c(O)c2c1C[C@H]1C[C@H]3[C@H](N(C)C)C(O)=C(C(N)=O)C(=O)[C@@]3(O)C(O)=C1C2=O | < 4 µg/mL | > 4 µg/mL |  |
| CC(C)Cc1ccc(O)c2c1C[C@H]1C[C@H]3[C@H](N(C)C)C(O)=C(C(N)=O)C(=O)[C@@]3(O)C(O)=C1C2=O | < 4 µg/mL | < 4 µg/mL |  |
| CCN(CC)Cc1cc(-c2ccoc2)c2c(c1O)C(=O)C1=C(O)[C@]3(O)C(=O)C(C(N)=O)=C(O)[C@@H](N(C)C)[C@@H]3C[C@@H]1C2 | < 4 µg/mL | > 4 µg/mL |  |
| CC(C)ONC(C)c1ccc(O)c2c1C[C@H]1C[C@H]3[C@H](N(C)C)C(O)=C(C(N)=O)C(=O)[C@@]3(O)C(O)=C1C2=O (stereo partly shown) | < 4 µg/mL | < 4 µg/mL |  |
| CN(C)[C@@H]1C(O)=C(C(N)=O)C(=O)[C@@]2(O)C(O)=C3C(=O)c4c(O)c(CNCC(C)(C)C)cc(-c5ccccn5)c4C[C@H]3C[C@@H]12 | < 4 µg/mL | > 4 µg/mL |  |
| COc1ccc(-c2cc(CNC(C)CF)c(O)c3c2C[C@H]2C[C@H]4[C@H](N(C)C)C(O)=C(C(N)=O)C(=O)[C@@]4(O)C(O)=C2C3=O)cc1 (stereo partly shown) | < 4 µg/mL |  | > 4 µg/mL |
| COCc1ccc(O)c2c1C[C@H]1C[C@H]3[C@H](N(C)C)C(O)=C(C(N)=O)C(=O)[C@@]3(O)C(O)=C1C2=O | < 4 µg/mL | < 4 µg/mL |  |
| CCOC(=O)/C=C/c1cc(N(C)C)c2c(c1O)C(=O)C1=C(O)[C@]3(O)C(=O)C(C(N)=O)=C(O)[C@@H](N(C)C)[C@@H]3C[C@@H]1C2 | < 4 µg/mL | > 4 µg/mL |  |
| CN(C)c1cc(CN)c(O)c2c1C[C@H]1C[C@H]3[C@H](N(C)C)C(O)=C(C(N)=O)C(=O)[C@@]3(O)C(O)=C1C2=O | < 4 µg/mL | > 4 µg/mL |  |
| CC(C)Cc1cc(N(C)C)c2c(c1O)C(=O)C1=C(O)[C@]3(O)C(=O)C(C(N)=O)=C(O)[C@@H](N(C)C)[C@@H]3C[C@@H]1C2 | < 4 µg/mL | < 4 µg/mL |  |
| CC(=O)NCc1ccc(O)c2c1C[C@H]1C[C@H]3[C@H](N(C)C)C(O)=C(C(N)=O)C(=O)[C@@]3(O)C(O)=C1C2=O | < 4 µg/mL | > 4 µg/mL |  |
| CN(C)[C@@H]1C(O)=C(C(N)=O)C(=O)[C@@]2(O)C(O)=C3C(=O)c4c(O)ccc(CNC(=O)C(C)(C)C)c4C[C@H]3C[C@@H]12 | < 4 µg/mL | > 4 µg/mL |  |
| C/C(=N/OCC(C)C)c1ccc(O)c2c1C[C@H]1C[C@H]3[C@H](N(C)C)C(O)=C(C(N)=O)C(=O)[C@@]3(O)C(O)=C1C2=O | < 4 µg/mL | < 4 µg/mL |  |
| CCCN(C)Cc1cc(N(C)C)c2c(c1O)C(=O)C1=C(O)[C@]3(O)C(=O)C(C(N)=O)=C(O)[C@@H](N(C)C)[C@@H]3C[C@@H]1C2 | < 4 µg/mL | > 4 µg/mL |  |
| CCCc1cc(N(C)C)c2c(c1O)C(=O)C1=C(O)[C@]3(O)C(=O)C(C(N)=O)=C(O)[C@@H](N(C)C)[C@@H]3C[C@@H]1C2 | < 4 µg/mL | > 4 µg/mL |  |
| CN1CCC(NCc2ccc3c(c2O)C(=O)C2=C(O)[C@]4(O)C(=O)C(C(N)=O)=C(O)[C@@H](N(C)C)[C@@H]4C[C@@H]2C3)CC1 | > 4 µg/mL | > 4 µg/mL |  |
| CN(C)c1cc(CCC(=O)NC(C)(C)C)c(O)c2c1C[C@H]1C[C@H]3[C@H](N(C)C)C(O)=C(C(N)=O)C(=O)[C@@]3(O)C(O)=C1C2=O | > 4 µg/mL | > 4 µg/mL |  |
| CSCc1cc(-c2ccccn2)c2c(c1O)C(=O)C1=C(O)[C@]3(O)C(=O)C(C(N)=O)=C(O)[C@@H](N(C)C)[C@@H]3C[C@@H]1C2 | < 4 µg/mL | > 4 µg/mL |  |
| CC(=O)Cc1cc(N(C)C)c2c(c1O)C(=O)C1=C(O)[C@]3(O)C(=O)C(C(N)=O)=C(O)[C@@H](N(C)C)[C@@H]3C[C@@H]1C2 | < 4 µg/mL | > 4 µg/mL |  |
| CC(=O)Cc1cc(-c2ccccn2)c2c(c1O)C(=O)C1=C(O)[C@]3(O)C(=O)C(C(N)=O)=C(O)[C@@H](N(C)C)[C@@H]3C[C@@H]1C2 | > 4 µg/mL | > 4 µg/mL |  |

| Structure (SMILES) | MIC (S. aureus RN450) | MIC (E. coli mL308 225; gram negative bacteria) | MIC (E. coli mL308 225) |
| --- | --- | --- | --- |
| CN(C)[C@@H]1C(O)=C(C(N)=O)C(=O)[C@@]2(O)C(O)=C3C(=O)c4c(O)c(CS(C)(=O)=O)cc(I)c4C[C@H]3C[C@@H]12 | < 4 µg/mL | > 4 µg/mL |  |
| CN(C)[C@@H]1C(O)=C(C(N)=O)C(=O)[C@@]2(O)C(O)=C3C(=O)c4c(O)c(N)cc(-c5ccccn5)c4C[C@H]3C[C@@H]12 | < 4 µg/mL | > 4 µg/mL |  |
| CN(C)[C@@H]1C(O)=C(C(N)=O)C(=O)[C@@]2(O)C(O)=C3C(=O)c4c(O)c(CN)cc(Cl)c4C=C3C[C@@H]12 | > 4 µg/mL | > 4 µg/mL |  |
| CN(C)[C@@H]1C(O)=C(C(N)=O)C(=O)[C@@]2(O)C(O)=C3C(=O)c4c(O)ccc(Cl)c4C=C3C[C@@H]12 | < 4 µg/mL | < 4 µg/mL |  |
| CC(=O)/C=C/c1ccc(O)c2c1C[C@H]1C[C@H]3[C@H](N(C)C)C(O)=C(C(N)=O)C(=O)[C@@]3(O)C(O)=C1C2=O | < 4 µg/mL | > 4 µg/mL |  |
| CN(C)[C@@H]1C(O)=C(C(N)=O)C(=O)[C@@]2(O)C(O)=C3C(=O)c4c(O)c(CS(C)(=O)=O)cc(-c5ccccn5)c4C[C@H]3C[C@@H]12 | < 4 µg/mL | > 4 µg/mL |  |
| Cc1noc(C)c1-c1ccc(O)c2c1C[C@H]1C[C@H]3[C@H](N(C)C)C(O)=C(C(N)=O)C(=O)[C@@]3(O)C(O)=C1C2=O | < 4 µg/mL | < 4 µg/mL |  |
| Cc1ccc(O)c2c1C[C@H]1C[C@H]3[C@H](N(C)C)C(O)=C(C(N)=O)C(=O)[C@@]3(O)C(O)=C1C2=O | < 4 µg/mL | < 4 µg/mL |  |
| CN(C)c1ccc(O)c2c1C[C@H]1C[C@H]3[C@H](N(C)C)C(O)=C(C#N)C(=O)[C@@]3(O)C(O)=C1C2=O | > 4 µg/mL | > 4 µg/mL |  |
| CC(=O)N(Cc1cc(N(C)C)c2c(c1O)C(=O)C1=C(O)[C@]3(O)C(=O)C(C(N)=O)=C(O)[C@@H](N(C)C)[C@@H]3C[C@@H]1C2)CC(C)(C)C | > 4 µg/mL | > 4 µg/mL |  |
| CNCc1cc(N(C)C)c2c(c1O)C(=O)C1=C(O)[C@]3(O)C(=O)C(C(N)=O)=C(O)[C@@H](N(C)C)[C@@H]3C[C@@H]1C2 | < 4 µg/mL | > 4 µg/mL |  |
| CN(C)[C@@H]1C(O)=C(C(N)=O)C(=O)[C@@]2(O)C(O)=C3C(=O)c4c(O)ccc(Cl)c4C[C@H]3C[C@@H]12 | < 4 µg/mL | < 4 µg/mL |  |
| Cc1ccc(-c2ccc(O)c3c2C[C@H]2C[C@H]4[C@H](N(C)C)C(O)=C(C(N)=O)C(=O)[C@@]4(O)C(O)=C2C3=O)cn1 | < 4 µg/mL | < 4 µg/mL |  |
| CCNCc1cc(N(C)C)c2c(c1O)C(=O)C1=C(O)[C@]3(O)C(=O)C(C(N)=O)=C(O)[C@@H](N(C)C)[C@@H]3C[C@@H]1C2 | < 4 µg/mL | > 4 µg/mL |  |
| CN(C)[C@@H]1C(O)=C(C(N)=O)C(=O)[C@@]2(O)C(O)=C3C(=O)c4c(O)ccc(-c5ccncc5F)c4C[C@H]3C[C@@H]12 | < 4 µg/mL | < 4 µg/mL |  |
| CN(C)c1cc(-c2ccccn2)c2c(c1O)C(=O)C1=C(O)[C@]3(O)C(=O)C(C(N)=O)=C(O)[C@@H](N(C)C)[C@@H]3C[C@@H]1C2 | < 4 µg/mL | > 4 µg/mL |  |
| CC(=O)Nc1cc(-c2ccccn2)c2c(c1O)C(=O)C1=C(O)[C@]3(O)C(=O)C(C(N)=O)=C(O)[C@@H](N(C)C)[C@@H]3C[C@@H]1C2 | < 4 µg/mL | > 4 µg/mL |  |
| Cc1cc(-c2ccccn2)c2c(c1O)C(=O)C1=C(O)[C@]3(O)C(=O)C(C(N)=O)=C(O)[C@@H](N(C)C)[C@@H]3C[C@@H]1C2 | < 4 µg/mL | > 4 µg/mL |  |
| CN(C)[C@@H]1C(O)=C(C(N)=O)C(=O)[C@@]2(O)C(O)=C3C(=O)c4c(O)c(S(=O)(=O)O)cc(Cl)c4C=C3C[C@@H]12 | > 4 µg/mL | > 4 µg/mL |  |
| CN(C)c1ccc(O)c2c1C[C@H]1C[C@H]3[C@H]([N+](C)(C)C)C(O)=C(C(N)=O)C(=O)[C@@]3(O)C(O)=C1C2=O | < 4 µg/mL | > 4 µg/mL |  |
| NC(=O)C1=C(O)C[C@@H]2C[C@@H]3Cc4cccc(O)c4C(=O)C3=C(O)[C@]2(O)C1=O | < 4 µg/mL | < 4 µg/mL |  |
| CN(C)c1ccc(O)c2c1C[C@H]1C[C@H]3CC(O)=C(C(N)=O)C(=O)[C@@]3(O)C(O)=C1C2=O | < 4 µg/mL | < 4 µg/mL |  |
| CC1C(C(=O)[C@@H]2CC(=O)C(C(N)=O)=C(O)[C@H]2N(C)C)=C(C(=O)NCC(C)(C)C)C(=O)c2c(O)cccc21 (stereo partly shown) | > 4 µg/mL | > 4 µg/mL |  |
| CN(C)[C@@H]1C(O)=C(C(N)=O)C(=O)[C@@]2(O)C(O)=C3C(=O)c4c(O)ccc(-n5cccn5)c4C[C@H]3C[C@@H]12 | < 4 µg/mL | < 4 µg/mL |  |
| CN(C)[C@@H]1C(O)=C(C(N)=O)C(=O)[C@@]2(O)C(O)=C3C(=O)c4c(O)ccc(S(=O)(=O)O)c4C[C@H]3C[C@@H]12 | > 4 µg/mL | > 4 µg/mL |  |
